In experiment [1] the target is T1, OR2AT4 (human olfactory receptor, endogenously expressed in HaCaT cells) (Homo sapiens, UniProt A6NND4).
T1 construct: OR2AT4, endogenous, HaCaT cells, calcium; endogenous in cells; host or cells: HaCaT cells
T1 sequence (A6NND4 1-320): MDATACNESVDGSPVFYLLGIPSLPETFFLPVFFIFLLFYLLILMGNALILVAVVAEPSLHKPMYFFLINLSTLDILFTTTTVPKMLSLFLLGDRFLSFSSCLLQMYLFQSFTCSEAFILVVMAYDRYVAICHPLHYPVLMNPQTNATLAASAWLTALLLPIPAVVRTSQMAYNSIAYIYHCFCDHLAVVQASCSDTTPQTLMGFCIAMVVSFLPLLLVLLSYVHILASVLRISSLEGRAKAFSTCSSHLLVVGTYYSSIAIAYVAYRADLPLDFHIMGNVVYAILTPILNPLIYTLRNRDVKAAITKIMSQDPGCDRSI
Kind of experiment: Calcium imaging, dose-dependent activation of HaCaT cells by Sandalore, fourth application (FIG. 9D). The format is cell-based. The following applies: HaCaT keratinocytes, endogenous OR2AT4, intracellular calcium signal amplitude, 0.0125-10 mM. The source says:
A method established at the Department of Cell Physiology of Ruhr University Bochum for deorphanization studies is calcium imaging, in which activation of an OR by an odorant is visualized by a change in the intracellular calcium concentration of transfected cells using a fluorescent dye [cf. Wetzel et al. in: J. Neurosci. 19, pp. 7426-7433 (1999); Spehr et al. in: Science 299, pp. 2054-2058 (2003); Neuhaus et al. in: J. Biol. Chem. 284, pp. 16218-16225 (2009)]. In this method, the Hana3A cells are briefly (20 s) stimulated with an odorant and selected for odorant screenings of high concentrations (up to 1 mM) in order to confirm activation of ORs weakly expressed in Hana3A cells.
For detection of OR2AT4 at the transcript level, RNA of various skin cell types and skin biopsy specimens was isolated, and RT-PCR was carried out. Transcripts of OR2AT4 were detected in human primary keratinocytes of various differentiation stages, HaCaT cells, and human skin biopsy specimens (full thickness skin) (FIG. 6). […] In contrast, no expression of the receptor was detected in adipocytes or fibroblasts (FIG. 6, center). […]
Effect of the OR2AT4 ligand Sandalore® on intracellular calcium concentration of cultivated keratinocytes. […] Right: Quantitative evaluation of calcium signals in 4-time application of Sandalore® (500 μM). […]
A general note: Calcium assays in cells follow changes in intracellular calcium, usually with a dye or a luminescent sensor.

Another experiment deals with HaCaT cells. The experiment in a line: In vitro wound scratch assay, HaCaT cells. The format is cell-based, human. The following applies: HaCaT; for Sandalore-increased wound healing on coincubation: 48 hours, Sandalore 500 μM + antagonist 500 μM or inhibitor 10 μM; for effect of the substance alone on wound healing: antagonist 500 μM or inhibitor 10 μM alone. The source says:
The MAP kinases p38 and ERK1/2 are often associated with increased proliferation and migration in epidermal wound healing. For this reason, in a further physiological experiment, the effect of Sandalore® on “wound healing” of a confluent cell layer of HaCaT cells or primary keratinocytes was investigated. For this purpose, the wound scratch assay was used, which is an established in vitro method for initial investigations of wound healing processes in keratinocytes.
In order to investigate the role of the OR2AT4 receptor in this effect, a test was conducted to determine whether the two antagonists Oxyphenylon and Phenirat could again reduce the “wound healing” increased by Sandalore®. For this purpose, Sandalore® was mixed with one of the antagonists each in the same ratio, and the effect on “wound healing” of the HaCaT cells was again observed for 48 hours. […] The two antagonists alone had no effect on the “wound healing” (FIG. 18d). The role of the MAP kinases p38 and ERK1/2 was investigated by means of specific inhibitors of the kinases. For p38 MAPK, the […] SB203580 was used, and for ERK1/2 MAPK, the […] U0126 was used. […] The two inhibitors alone had no effect on the wound healing (FIG. 18d).
Effect of Sandalore® stimulation on human keratinocytes in an in vitro “wound healing” assay. Investigation of the “wound healing rate” of A) primary keratinocytes and B) HaCaT cells by means of a wound scratch assay in the presence of Sandalore® (500 μM) or 0.1% DMSO as a control. Left: Transmitted light images of the “wound” observed at various times. The growth margin of the cells was surrounded in black. Scale: 200 μm. Right: Quantitative evaluation of the wound scratch assay. The areas of the wounds were measured and compared to the initial wound (0 h). Mean values including standard error. Mann-Whitney U test; n=4 experiments. *: p<0.05; ***: p<0.001. C) Wound scratch assay in the presence of Sandalore® (500 μM) and one of the antagonists Oxyphenylon (500 μM) or Phenirat (500 μM) respectively, the p38 MAPK inhibitor 5B203580 (10 μM), or the ERK1/2 MAPK inhibitor U0126 (10 μM). The measured wound areas of the treated cells (after 48-hour stimulation) were compared to the control (0.1% DMSO). Mean values including standard error. Kruskal-Wallis test with multiple comparison; n=3 experiments. *: p<0.05. D) Controls for the wound scratch assay with Oxyphenylon (500 μM), Phenirat (500 μM), 5B203580 (10 μM), or U0126 (10 μM) carried out under C). The measured wound areas of the treated cells were compared to the control (0.1% DMSO). Mean value included.

The subject of another experiment is ERK1/2 MAPK. The experiment in a line: Western Blot, phosphorylation of ERK1/2 MAPK in HaCaT cells. Type of experiment: cell-based, human. The following applies: inhibitor 10 μM, Sandalore 500 μM. As to the method:
(§1) In the following, an investigation was to be conducted to determine whether a MAPK signalling pathway is activated by Sandalore® stimulation in skin cells, and if so, which pathway is involved. For detection, HaCaT cells were stimulated for 0-30 min with 500 μM of Sandalore®, and the proteins were then isolated and used in Western Blot assays.
In order to reveal a possible interaction of the two MAPK signalling pathways, ERK1/2 phosphorylation in the presence of the p38 MAPK inhibitor SB203580 and p38 MAPK phosphorylation in the presence of the ERK1/2 MAPK inhibitor U0126 were investigated. Phosphorylation was increased for both kinases in the presence of the respective inhibitors compared to the cells stimulated with Sandalore® only. This effect was significant for p38 MAPK (FIG. 17c).
(§2) Effect of Sandalore® stimulation on phosphorylation of MAP kinases in skin cells. A) Western Blot for investigating the phosphorylation of the MAP kinases in HaCaT cells stimulated for 0, 5, 15 and 30 min with Sandalore®(500 μM). In order to confirm uniform protein volume, ▪-tubulin was used as a control. ERK1/2: 42/44 kDa; p38: 43 kDa; JNK/SAPK: 46/54 kDA; ▪-tubulin: 52 kDa. B) Quantitative evaluation of p38 and ERK1/2 phosphorylation of HaCaT cells stimulated for 30 min with Sandalore®(500 μM) or additionally with the p38 inhibitor 5B203580 (10 μM) or ERK1/2 inhibitor U0126 (10 μM). For evaluation, the ratio of the phosphorylated (p) and unphosphorylated proteins was established and compared to that of untreated cells. Mean values including standard error. Mann-Whitney U test. *: p<0.05; ***: p<0.001. In C), the inhibitors of the respective other MAP kinase were used, and phosphorylation was compared to the cells stimulated with Sandalore® (500 μM) alone. Mean values including standard error. Mann-Whitney U test. *: p<0.05. The Western Blot analyses were carried out with three different protein isolations.
Background: In western blotting, separated proteins are transferred to a membrane and probed.

The next experiment deals with p38 MAPK. Kind of experiment: Western Blot, phosphorylation of p38 MAPK in HaCaT cells. Type of experiment: cell-based, human. The following applies: inhibitor 10 μM, Sandalore 500 μM. On the procedure:
as §1
In order to reveal a possible interaction of the two MAPK signalling pathways, ERK1/2 phosphorylation in the presence of the p38 MAPK inhibitor SB203580 and p38 MAPK phosphorylation in the presence of the ERK1/2 MAPK inhibitor U0126 were investigated.
as §2, with “A)” for “Effect of Sandalore® stimulation on phosphorylation of MAP kinases in skin cells. A)”, “In order to confirm uniform protein volume, ▪-tubulin was used as a control.” left out

One may read the EC50 as the concentration needed to bring the measured effect to its halfway point.

Structures are written as SMILES.

As for `CC1=CCC(CCC(C)C(C)O)C1(C)C` (stereo not drawn) [Sandalore], the concentration for a half-maximal effect (EC50) in experiment [1] amounted to 110 µM.

Take `C[S+]([O-])c1ccc(-c2nc(-c3ccncc3)c(-c3ccc(F)cc3)[nH]2)cc1` (stereo not drawn) [SB203580]: in the experiment with HaCaT cells, the “Sandalore-increased wound healing on coincubation” value is “again reduced to the normal level” and the “effect of the substance alone on wound healing” value was “no effect”. Further, the “ERK1/2 phosphorylation in the presence of the p38 MAPK inhibitor compared to Sandalore only” value with ERK1/2 MAPK was “increased”. In the experiment with p38 MAPK (30 min), the “Sandalore-induced p38 MAPK phosphorylation with p38 inhibitor” value is on record as “significantly reduced”.

On to `N#CC(=C(/N)Sc1ccccc1N)/C(C#N)=C(\N)Sc1ccccc1N` [U0126], for which, in the experiment with HaCaT cells, the “Sandalore-increased wound healing on coincubation” value is “again reduced to the normal level” and the “effect of the substance alone on wound healing” value was “no effect”. Further, in the experiment with ERK1/2 MAPK (30 min), the “Sandalore-induced ERK1/2 MAPK phosphorylation with ERK1/2 inhibitor” value is listed as “significantly reduced”. In addition, in the experiment on p38 MAPK, the “increase of p38 MAPK phosphorylation in the presence of the ERK1/2 MAPK inhibitor compared to Sandalore only” value is given as “significant”.

The values are drawn from patent US10835500B2, “Medicament for accelerated wound healing” (Symrise AG, priority 2014, dated 2020).
